Results reported in patent US11512268B2, “Storage-stable enzyme preparations, their production and use” (BASF SE, priority 2017, dated 2022).

What was measured:
[1] = molecular target: T1, Lipolase (Thermomyces lanuginosus, UniProt O59952); assay: storage stability of lipase (Lipolase activity, pNitrophenol-valerate substrate) in liquid formulations at 37° C.; assay type: biochemical, Thermomyces lanuginosa; conditions: Lipolase 0.4 wt %, storage at 37° C.
T1 construct: purchased Sigma-Aldrich
T1 sequence (O59952 23-291): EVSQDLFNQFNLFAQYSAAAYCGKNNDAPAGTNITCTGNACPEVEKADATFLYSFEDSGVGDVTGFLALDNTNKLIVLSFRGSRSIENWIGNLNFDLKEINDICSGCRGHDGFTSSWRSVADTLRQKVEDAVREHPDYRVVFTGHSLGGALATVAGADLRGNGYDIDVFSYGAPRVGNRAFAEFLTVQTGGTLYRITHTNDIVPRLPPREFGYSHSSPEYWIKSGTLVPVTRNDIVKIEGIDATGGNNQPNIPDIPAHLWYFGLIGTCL

[2] = molecular target: T2, Savinase (Lederbergia lenta, UniProt P29600); assay: storage stability of protease (Savinase activity, Suc-AAPF-pNA substrate) in liquid formulations at 37° C.; assay type: biochemical; conditions: Savinase 16.0 L 0.5 wt %, storage at 37° C.
T2 construct: purchased Sigma-Aldrich
T2 sequence (P29600 1-269): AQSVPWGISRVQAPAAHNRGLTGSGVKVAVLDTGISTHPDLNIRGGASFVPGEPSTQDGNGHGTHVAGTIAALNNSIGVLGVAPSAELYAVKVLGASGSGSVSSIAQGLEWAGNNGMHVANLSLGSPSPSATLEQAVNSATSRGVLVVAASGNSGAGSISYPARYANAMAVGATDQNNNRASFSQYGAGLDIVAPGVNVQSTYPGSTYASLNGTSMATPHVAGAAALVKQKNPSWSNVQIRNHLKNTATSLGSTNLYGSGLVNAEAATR

[3] = base formulation I., component (a) 2.5 wt %, 1 d
[4] = base formulation I., component (a) 2.5 wt %, 3 d
[5] = base formulation I., component (a) 2.5 wt %, 6 d
[6] = base formulation I., component (a) 2.5 wt %, 10 d
[7] = base formulation I., component (a) 2.5 wt %, 15 d
[8] = base formulation I., component (a) 2.5 wt %, 20 d
[9] = base formulation I., component (a) 2.5 wt %, 25 d
[10] = base formulation I., component (a) 2.5 wt %, 30 d

Structure (SMILES): C[N+](C)(C)CCO.[Cl-] [C-(A.15), Choline chloride]
- lipase activity [1, 3]: 95%
- lipase activity [1, 4]: 80%
- lipase activity [1, 5]: 67%
- lipase activity [1, 6]: 55%
- lipase activity [1, 7]: 41%
- lipase activity [1, 8]: 32%
- lipase activity [1, 9]: 22%
- lipase activity [1, 10]: 20%
- lipase activity ([1]; base formulation II., component (a) 2.5 wt %, 1 d): 95%
- lipase activity ([1]; base formulation II., component (a) 2.5 wt %, 3 d): 82%
- lipase activity ([1]; base formulation II., component (a) 2.5 wt %, 6 d): 65%
- lipase activity ([1]; base formulation II., component (a) 2.5 wt %, 10 d): 56%
- lipase activity ([1]; base formulation II., component (a) 2.5 wt %, 15 d): 40%
- lipase activity ([1]; base formulation II., component (a) 2.5 wt %, 20 d): 33%
- lipase activity ([1]; base formulation II., component (a) 2.5 wt %, 25 d): 26%
- lipase activity ([1]; base formulation II., component (a) 2.5 wt %, 30 d): 22%
- lipase activity ([1]; base formulation IV., component (a) 4.0 wt %, 1 d): 95%
- lipase activity ([1]; base formulation IV., component (a) 4.0 wt %, 3 d): 82%
- lipase activity ([1]; base formulation IV., component (a) 4.0 wt %, 6 d): 72%
- lipase activity ([1]; base formulation IV., component (a) 4.0 wt %, 10 d): 59%
- lipase activity ([1]; base formulation IV., component (a) 4.0 wt %, 15 d): 44%
- lipase activity ([1]; base formulation IV., component (a) 4.0 wt %, 20 d): 36%
- lipase activity ([1]; base formulation IV., component (a) 4.0 wt %, 25 d): 30%
- lipase activity ([1]; base formulation IV., component (a) 4.0 wt %, 30 d): 23%
- lipase activity ([1]; base formulation V., component (a) 4.0 wt %, 1 d): 95%
- lipase activity ([1]; base formulation V., component (a) 4.0 wt %, 3 d): 86%
- lipase activity ([1]; base formulation V., component (a) 4.0 wt %, 6 d): 74%
- lipase activity ([1]; base formulation V., component (a) 4.0 wt %, 10 d): 63%
- lipase activity ([1]; base formulation V., component (a) 4.0 wt %, 15 d): 54%
- lipase activity ([1]; base formulation V., component (a) 4.0 wt %, 20 d): 41%
- lipase activity ([1]; base formulation V., component (a) 4.0 wt %, 25 d): 39%
- lipase activity ([1]; base formulation V., component (a) 4.0 wt %, 30 d): 30%
- protease activity [2, 3]: 92%
- protease activity [2, 4]: 85%
- protease activity [2, 5]: 64%
- protease activity [2, 6]: 47%
- protease activity [2, 7]: 39%
- protease activity [2, 8]: 31%
- protease activity [2, 9]: 22%
- protease activity [2, 10]: 8%
- protease activity ([2]; base formulation I., component (a) 2.5 wt %, T0): 98%
- protease activity ([2]; base formulation VI., component (a) 4.0 wt %, 1 d): 90%
- protease activity ([2]; base formulation VI., component (a) 4.0 wt %, 3 d): 84%
- protease activity ([2]; base formulation VI., component (a) 4.0 wt %, 6 d): 66%
- protease activity ([2]; base formulation VI., component (a) 4.0 wt %, 10 d): 47%
- protease activity ([2]; base formulation VI., component (a) 4.0 wt %, 15 d): 36%
- protease activity ([2]; base formulation VI., component (a) 4.0 wt %, 20 d): 29%
- protease activity ([2]; base formulation VI., component (a) 4.0 wt %, 25 d): 20%
- protease activity ([2]; base formulation VI., component (a) 4.0 wt %, 30 d): 10%
- protease activity ([2]; base formulation VI., component (a) 4.0 wt %, T0): 85%
